This note sets out measurements from US20160244452A1, “HETEROCYCLIC COMPOUNDS AND USES THEREOF” (INFINITY PHARMACEUTICALS, INC., priority 2014, published 2016).

The subject of one test is BTK or MEK pathway. In words: Effect on BTK or MEK pathway.
The next test deals with T1, δ PI3K (Homo sapiens, UniProt O00329).
T1 construct: purchased Millipore
In words: PI3-Kinase Promega ADP-Glo Max assay, δ isoform. It is filed as biochemical. As to conditions: 20 nM kinase, 3 mM ATP, 500 uM diC8-PtdInsP. The procedure: (§1) PI3-Kinase Promega™ Assay
(§2) Promega ADP-Glo Max assay kit (Cat. No. V7002) was utilized to determine IC50 values for α, β, δ and γ isoforms of human Class I PI3 kinases (Millipore). Samples of kinase (20 nM α or δ, 40 nM β or γ isoform) were incubated with compound for 15 minutes at room temperature in reaction buffer (15 mM HEPES pH 7.4, 20 mM NaCl, 1 mM EGTA, 0.02% Tween 20, 10 mM MgCl2, 0.2 mg/mL bovine-γ-globulins) followed by addition of ATP/diC8-PtdInsP mixture to give final concentrations of 3 mM ATP and 500 uM diC8-PtdInsP. Reactions were incubated at room temperature for 2 hours followed by addition of 25 uL of stop solution. After a 40-minute incubation at room temperature, 50 uL of Promega detection mix was added followed by incubation for 1 hour at room temperature. Plates were then read on Envision plate reader in luminescence mode. Data was converted to % inhibition using the following equation below: […]
(§3) where S is the sample luminescence, Pos is a positive control without added PI3K, Neg is the negative control without added compound. Data was then plotted as % inhibition vs compound concentration. Data fit to 4 parameter logistic equation to determine IC50 values: […]
(§4) Certain compounds provided herein were tested in PI3-Kinase Promega Assay using procedures as described above to determine IC50 values for α, β, δ and/or γ isoforms.
(ADP-Glo first removes unused ATP, then detects ADP through luciferase.)

The target of another test is T2, γ PI3K (Homo sapiens, UniProt P48736).
T2 construct: purchased Millipore
In words: PI3-Kinase Promega ADP-Glo Max assay, γ isoform. It counts as biochemical. As to conditions: 40 nM kinase, 3 mM ATP, 500 uM diC8-PtdInsP. Here is the method: as §1, §2, §3, §4

The target in the next test is T3, α PI3K (Homo sapiens, UniProt P42336).
T3 construct: purchased Millipore
In words: PI3-Kinase Promega ADP-Glo Max assay, α isoform. It is filed as biochemical. The following applies: 20 nM kinase, 3 mM ATP, 500 uM diC8-PtdInsP. The procedure: as §1, §2, §3, §4

The next test concerns the target T4, p110 δ (Homo sapiens, UniProt O00329).
T4 construct: endogenous in cells; host or cells: RAJI cells
Briefly: PI3K-δ selective cellular assay: phospho-AKT in anti-human IgM stimulated RAJI cells. It counts as cell-based. The following applies: serum-starved RAJI cells stimulated with anti-human IgM. The text has this:
(a) PI3K-δ Selective Assay
A compound's ability in selectively inhibiting PI3K-δ can be assessed using RAJI cells, i.e., B lymphocyte cells derived from lymphoma patients. Briefly, serum-starved RAJI cells are stimulated with anti-human IgM, thereby causing signaling through the B-cell receptors, as described in, for example, He et al., Leukemia Research (2009) 33: 798-802. B-cell receptor signaling is important for the activation, differentiation, and survival of B cells and certain B-cell derived cancers. Reduction of phospho-AKT is indicative of compounds that can inhibit B-cell proliferation and function in certain diseases. By monitoring the reduction of phospho-AKT in stimulated RAJI cells (using for example, phospho-AKT antibodies), a compound's potential efficacy in selectively inhibiting PI3Kδ can be assessed.
Certain compounds provided herein were tested in RAJI cell model using procedures as described above.

The target in the next test is T5, β PI3K (Homo sapiens, UniProt P42338).
T5 construct: purchased Millipore
In words: PI3-Kinase Promega ADP-Glo Max assay, β isoform. The following applies: 40 nM kinase, 3 mM ATP, 500 uM diC8-PtdInsP. It counts as biochemical. The procedure: as §1, §2, §3, §4

The next test deals with T6, p110 γ (Mus musculus, UniProt Q9JHG7).
T6 construct: endogenous in cells; host or cells: RAW264.7 macrophages
In words: PI3K-γ selective cellular assay: phospho-AKT in C5a stimulated RAW264.7 macrophages. It is filed as cell-based. As to conditions: serum-starved RAW264.7 cells stimulated with C5a. The text has this:
(b) PI3K-γ Selective Assay
A compound's ability in selectively inhibiting PI3K-γ can be assessed using RAW264.7 macrophages. Briefly, serum-starved RAW264.7 cells are stimulated with a known GPCR agonist C5a. See, e.g., Camps et al., Nature Medicine (2005) 11(9):936-943. Cells can be treated with test compounds prior to, simultaneously with, or subsequent to the stimulation by C5a. RAW 264.7 cells respond to the complement component fragment C5a through activation of the C5a receptor, and the C5a receptor activates macrophages and induces cell migration. Test compounds' ability to inhibit C5a-mediated AKT phosphorylation is indicative of selective inhibition of PI3K-γ. Thus, by monitoring the reduction of phospho-AKT in stimulated RAW 264.7 cells (using for example, phospho-AKT antibodies), a compound's potential efficacy in selectively inhibiting PI3Kγ can be assessed.
Certain compounds provided herein were tested in RAW 264.7 cell model using procedures as described above.

pIC50: −log10 of the molar value.

T1 sequence (O00329 whole entry): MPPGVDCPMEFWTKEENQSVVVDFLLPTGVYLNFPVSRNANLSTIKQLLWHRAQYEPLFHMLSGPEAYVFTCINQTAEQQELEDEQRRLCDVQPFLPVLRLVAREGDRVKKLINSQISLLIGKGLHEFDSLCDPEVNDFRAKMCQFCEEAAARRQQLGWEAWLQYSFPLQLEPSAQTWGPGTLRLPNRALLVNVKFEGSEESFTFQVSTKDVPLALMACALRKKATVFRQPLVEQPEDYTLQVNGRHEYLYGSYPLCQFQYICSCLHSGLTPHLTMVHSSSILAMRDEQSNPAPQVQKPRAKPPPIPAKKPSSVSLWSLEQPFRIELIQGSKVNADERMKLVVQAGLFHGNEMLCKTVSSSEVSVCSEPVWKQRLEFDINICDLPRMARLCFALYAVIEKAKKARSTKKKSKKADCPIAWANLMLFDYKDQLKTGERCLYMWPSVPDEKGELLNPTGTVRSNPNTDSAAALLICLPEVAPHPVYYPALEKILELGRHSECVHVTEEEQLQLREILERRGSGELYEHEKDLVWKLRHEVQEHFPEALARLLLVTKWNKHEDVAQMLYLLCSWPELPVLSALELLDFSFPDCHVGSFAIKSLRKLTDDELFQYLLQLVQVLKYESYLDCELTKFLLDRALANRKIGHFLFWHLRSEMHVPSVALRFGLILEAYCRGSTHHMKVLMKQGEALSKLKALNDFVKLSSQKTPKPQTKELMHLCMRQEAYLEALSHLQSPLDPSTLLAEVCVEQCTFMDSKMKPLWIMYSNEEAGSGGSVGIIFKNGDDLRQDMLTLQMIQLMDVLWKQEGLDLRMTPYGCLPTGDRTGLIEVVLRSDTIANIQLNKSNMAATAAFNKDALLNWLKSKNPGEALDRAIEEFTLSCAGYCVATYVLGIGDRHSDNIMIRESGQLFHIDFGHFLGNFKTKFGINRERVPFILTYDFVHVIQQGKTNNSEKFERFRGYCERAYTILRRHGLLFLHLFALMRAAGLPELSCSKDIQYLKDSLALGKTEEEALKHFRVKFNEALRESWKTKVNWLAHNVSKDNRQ
T1 sequence (P27986 whole entry partner): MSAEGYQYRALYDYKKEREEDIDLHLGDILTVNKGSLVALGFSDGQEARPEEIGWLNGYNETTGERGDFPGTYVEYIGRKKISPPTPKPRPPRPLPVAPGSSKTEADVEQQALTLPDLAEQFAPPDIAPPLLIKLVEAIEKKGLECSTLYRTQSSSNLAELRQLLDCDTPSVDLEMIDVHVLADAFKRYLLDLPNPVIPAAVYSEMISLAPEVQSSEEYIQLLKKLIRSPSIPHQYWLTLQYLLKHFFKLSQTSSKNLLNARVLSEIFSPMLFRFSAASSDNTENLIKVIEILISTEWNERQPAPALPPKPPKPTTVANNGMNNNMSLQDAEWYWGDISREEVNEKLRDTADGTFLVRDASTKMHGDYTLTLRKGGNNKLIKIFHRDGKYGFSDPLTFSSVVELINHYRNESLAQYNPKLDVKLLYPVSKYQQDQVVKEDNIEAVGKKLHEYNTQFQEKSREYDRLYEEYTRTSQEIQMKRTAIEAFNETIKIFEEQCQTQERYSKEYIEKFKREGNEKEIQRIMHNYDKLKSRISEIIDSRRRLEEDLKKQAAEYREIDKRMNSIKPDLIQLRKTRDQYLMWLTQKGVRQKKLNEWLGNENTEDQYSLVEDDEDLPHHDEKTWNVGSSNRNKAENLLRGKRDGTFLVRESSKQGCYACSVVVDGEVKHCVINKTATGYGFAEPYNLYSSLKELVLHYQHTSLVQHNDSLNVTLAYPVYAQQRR
T4 sequence (O00329 whole entry): as the sequence (O00329 whole entry) above
T4 sequence (P27986 whole entry partner): as the sequence (P27986 whole entry partner) above
T3 sequence (P42336 whole entry): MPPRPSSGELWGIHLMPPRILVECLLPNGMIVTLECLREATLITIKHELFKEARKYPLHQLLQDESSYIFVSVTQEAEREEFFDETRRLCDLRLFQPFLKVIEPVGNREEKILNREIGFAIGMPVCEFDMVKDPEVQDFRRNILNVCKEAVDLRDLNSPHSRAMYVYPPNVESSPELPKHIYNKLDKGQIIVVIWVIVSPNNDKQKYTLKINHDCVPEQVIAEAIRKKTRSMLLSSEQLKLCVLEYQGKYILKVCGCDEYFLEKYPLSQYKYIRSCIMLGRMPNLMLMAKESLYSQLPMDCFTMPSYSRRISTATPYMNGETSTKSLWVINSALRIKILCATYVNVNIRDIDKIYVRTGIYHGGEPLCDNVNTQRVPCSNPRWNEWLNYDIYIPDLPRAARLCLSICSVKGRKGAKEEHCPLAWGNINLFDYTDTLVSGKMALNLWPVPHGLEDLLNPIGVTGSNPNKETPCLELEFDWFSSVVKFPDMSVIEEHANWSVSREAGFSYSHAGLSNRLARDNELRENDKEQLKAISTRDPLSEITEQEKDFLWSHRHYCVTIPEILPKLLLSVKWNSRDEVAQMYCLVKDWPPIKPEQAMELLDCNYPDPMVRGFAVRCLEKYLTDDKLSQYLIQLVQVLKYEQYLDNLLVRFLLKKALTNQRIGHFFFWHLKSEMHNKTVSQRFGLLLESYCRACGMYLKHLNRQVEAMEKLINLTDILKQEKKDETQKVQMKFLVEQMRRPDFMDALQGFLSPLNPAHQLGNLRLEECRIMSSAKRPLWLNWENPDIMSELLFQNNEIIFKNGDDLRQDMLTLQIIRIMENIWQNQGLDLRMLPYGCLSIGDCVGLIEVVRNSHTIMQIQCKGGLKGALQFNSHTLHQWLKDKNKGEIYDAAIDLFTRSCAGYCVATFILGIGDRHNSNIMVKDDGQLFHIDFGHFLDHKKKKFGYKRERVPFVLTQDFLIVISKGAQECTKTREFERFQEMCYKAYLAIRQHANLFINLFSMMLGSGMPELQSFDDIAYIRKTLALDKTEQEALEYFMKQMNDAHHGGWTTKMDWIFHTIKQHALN
T3 sequence (P27986 whole entry partner): as the sequence (P27986 whole entry partner) above
T6 sequence (Q9JHG7 whole entry): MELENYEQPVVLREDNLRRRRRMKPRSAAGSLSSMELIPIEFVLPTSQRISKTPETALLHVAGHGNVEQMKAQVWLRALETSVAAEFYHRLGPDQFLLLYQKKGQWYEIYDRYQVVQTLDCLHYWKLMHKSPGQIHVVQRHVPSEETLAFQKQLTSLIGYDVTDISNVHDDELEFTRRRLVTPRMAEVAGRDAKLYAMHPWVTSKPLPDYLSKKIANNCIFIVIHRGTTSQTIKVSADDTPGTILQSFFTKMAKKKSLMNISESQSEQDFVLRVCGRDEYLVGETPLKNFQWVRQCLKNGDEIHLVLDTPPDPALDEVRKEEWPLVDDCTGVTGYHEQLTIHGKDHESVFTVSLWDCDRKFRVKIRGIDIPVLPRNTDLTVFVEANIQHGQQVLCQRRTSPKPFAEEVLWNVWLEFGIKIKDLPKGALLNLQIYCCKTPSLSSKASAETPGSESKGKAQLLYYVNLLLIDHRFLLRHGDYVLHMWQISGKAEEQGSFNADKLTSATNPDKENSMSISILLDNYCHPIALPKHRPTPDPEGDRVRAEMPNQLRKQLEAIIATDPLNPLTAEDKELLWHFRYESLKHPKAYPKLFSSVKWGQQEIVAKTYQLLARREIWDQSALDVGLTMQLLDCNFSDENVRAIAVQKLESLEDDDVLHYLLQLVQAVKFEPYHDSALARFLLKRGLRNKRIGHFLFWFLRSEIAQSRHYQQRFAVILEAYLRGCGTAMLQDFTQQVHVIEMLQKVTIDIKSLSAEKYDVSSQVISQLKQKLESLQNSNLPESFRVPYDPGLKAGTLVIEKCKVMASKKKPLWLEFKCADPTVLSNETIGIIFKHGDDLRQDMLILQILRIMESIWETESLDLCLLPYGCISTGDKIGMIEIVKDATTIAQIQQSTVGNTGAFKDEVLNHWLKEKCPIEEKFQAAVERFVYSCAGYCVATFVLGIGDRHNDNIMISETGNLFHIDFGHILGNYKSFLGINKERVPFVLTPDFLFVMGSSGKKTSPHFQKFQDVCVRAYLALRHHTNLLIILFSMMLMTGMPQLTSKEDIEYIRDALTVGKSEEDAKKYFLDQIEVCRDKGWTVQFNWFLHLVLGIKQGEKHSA

With `CCC(Nc1ncnc2[nH]cnc12)c1cc2cccc(F)c2c(=O)n1-c1ccccc1` (stereo not shown) [Compound 1], the “Effect on BTK or MEK pathway” value in the test on BTK or MEK pathway is on record as “does not affect BTK or MEK pathway”.

On to `CC[C@H](Nc1ncnc2[nH]cnc12)c1cc2cccc(F)c2c(=O)n1-c1ccccc1` [1 s], for which the pIC50 on δ PI3K was 7.00 to 8.00; against γ PI3K it was 5.46 to 7.00; against α PI3K, 5.00 to 5.46; against p110 δ it was 8.00 to 9.00; on β PI3K it was 5.46 to 7.00; at p110 γ it was 5.46 to 7.00.

In the case of `C[C@H](Nc1ncnc2[nH]cnc12)c1cc2ccc(F)c(Cl)c2c(=O)n1-c1ccccc1` [96 s], the pIC50 against δ PI3K is 8.00 to 9.00; on γ PI3K, 5.46 to 7.00; on α PI3K it was 5.46 to 7.00; at p110 δ, 8.00 to 9.00; on β PI3K, 5.46 to 7.00; against p110 γ, 7.00 to 8.00.

Broadly, the pIC50 is the IC50 on a negative log10 scale, so that one unit is a factor of ten.
